Assay results from patent US4032656A, “Aromatic prostaglandin derivatives” (SmithKline Corporation, priority 1975, dated 1977).

What was measured:
PGE2 diarrhea in mice = test: Antagonism of diarrhea induced by prostaglandin E2 (PGE2); format: in vivo; conditions: 20 mg./kg., subcutaneously 15 minutes prior to intraperitoneal PGE2, examined every 15 minutes for one hour
Protocol: The antagonism of diarrhea induced by prostaglandin E2 (PGE2) was determined by employing the modified standard animal pharmacological test procedure as reported in Intra Science Chem. Rept, 6:1-9, 1972 and Annals of the New York Academy of Sciences, 180:386-95, 1971. Briefly the test comprises administering the test compounds subcutaneously 15 minutes prior to an intraperitoneal injection of PGE2. Each animal is examined for diarrhea (which results after the administration of PGE2) every 15 minutes for one hour post-drug. Polyphloretin phosphate and 7 oxa-13-prostynoic acid, both well known antagonists of prostaglandin induced diarrhea, were employed as reference compounds.

prostaglandin synthesis = test: Inhibition of prostaglandin synthesis (arachidonic acid-dependent formation of adrenochrome from L-epinephrine during prostaglandin biosynthesis; Takeguchi and Sih); format: biochemical; conditions: for IC50: read-out: ID50 (the source's name)
Description: The prostaglandin synthesis inhibition method as employed is reported by Takeguchi and Sih, Prostaglandins, 2, 169, 1972. The principle entails the arachidonic acid-dependent formation of adrenochrome from L-epinephrine during prostaglandin biosynthesis. Indomethacin, phenylbutazone and aspirin were used as reference compounds.

[1] = prostaglandin synthesis inhibition

| Molecule | inhibition of PGE2 diarrhea in mice (PGE2 diarrhea in mice) [%] | IC50 (prostaglandin synthesis; [1]) [µM] | further results |
| --- | --- | --- | --- |
| CCCCCC(O)/C=C/c1ccccc1CCCCCCC(=O)OC (stereo not drawn) [1-(6-carbomethoxyhexyl)-2-(3-hydroxy-trans-1-octenyl)benzene] | 53 | – | – |
| CCCCCC(O)/C=C/c1ccccc1CCCCCCC(=O)O (stereo not drawn) [1-(6-carboxyhexyl)-2-(3-hydroxy-trans-1-octenyl)benzene] | – | 410 | inhibition of prostaglandin synthesis (prostaglandin synthesis; at 1000 μM): 100%; potency as inhibitor relative to aspirin (prostaglandin synthesis; ratio of ID50's, prostaglandin synthesis inhibition, vs aspirin): nine times as potent; potency as inhibitor relative to phenylbutazone (prostaglandin synthesis; ratio of ID50's, prostaglandin synthesis inhibition, vs phenylbutazone): twice as potent |
| CC(=O)Oc1ccccc1C(=O)O [aspirin, reference compound] | – | 3700 | – |
| CCCCC1C(=O)N(c2ccccc2)N(c2ccccc2)C1=O [phenylbutazone, reference compound] | – | 875 | – |
| polyphloretin phosphate [reference compound] | 36 | – | – |
